Source: publication PMC4266648, “Metabolism of Skin-Absorbed Resveratrol into Its Glucuronized Form in Mouse Skin” (PLoS ONE, 2014)
“Also recorded” adds a separate entry of the source.

Tests used:
[1] = tested on: HaCaT (human keratinocytes); assay: RESV metabolism in cell culture (LC-MS), HaCaT; conditions: 20 or 200 µM RESV, 4 h
Protocol: (§1) Cells were maintained in Dulbecco’s Modified Eagle Medium (DMEM) with 1% penicillin/streptomycin and 2 mM L-glutamine with some modifications as follows; DMEM (1.0 g/L glucose) with 10% fetal calf serum (FCS) for HepG2; DMEM (4.5 g/L glucose) with 10% FCS for HaCaT; DMEM (4.5 g/L glucose) with 20% FCS for C2C12. C2C12 cells were differentiated into myotubes by switching medium into DMEM containing 2% horse serum. Cells were plated on a 10 cm dish and allowed to adhere for 18 h. […] After 4 h incubation, cells were washed with PBS twice, followed by addition of 2 mL 50% ice-cold methanol. Collected cells were transferred into tubes on ice and further processed as described in metabolome sample preparation section.
(§2) After addition of internal standards (10 nmol HEPES and PIPES) to metabolome samples and brief vortexing, samples were transferred to Amicon Ultra 10 kDa cut-off filters (Millipore, Billerica, MA, USA) to remove proteins. […]
(§3) LC-MS data were obtained using a Paradigm MS4 HPLC system (Michrom Bioresources, Auburn, CA, USA) coupled to an LTQ Orbitrap mass spectrometer (Thermo Fisher Scientific, Waltham, MA, USA), as described previously [38]. […] Peak areas of metabolites of interest were measured using the MZmine 2.10 software [39] and normalized using the peak areas of HEPES and PIPES, as described in S2 Table.

[2] = tested on: C2C12 (mouse myoblasts); assay: RESV metabolism in cell culture (LC-MS), C2C12; conditions: C2C12, 20 or 200 µM RESV, 4 h
Protocol: as §1, §2, §3

[3] = tested on: HepG2 (human hepatoblastoma cells); assay: RESV metabolism in cell culture (LC-MS), HepG2; conditions: HepG2, 20 or 200 µM RESV, 4 h
Protocol: as §1, §2, §3

[4] = Distribution of RESV metabolites in mouse tissues after oral and dermal administration (LC-MS); format: in vivo, mouse; conditions: for Tissue distribution of metabolite: hairless mice, 4 h after 1 mg RESV, both oral and skin administration
Protocol: Mice were separated from each other and could not lick RESV from their dorsal skin.
Mice were anesthetized with pentobarbital and blood was collected from the right ventricle. For metabolite extraction 0.2 mL of blood were mixed with 1.8 mL 55% methanol, pre-chilled to −40°C and kept until further processing as described in the metabolome sample preparation section. In addition to blood, metabolome samples were prepared from liver, dorsal skin, leg skin, and hind limb muscle.
Around 100 mg of each mouse tissue was dissected and weighed. Tissues were minced and homogenized for 3 min in 500 µL 50% methanol on ice using a BioMasher II (Nippi, Tokyo, Japan). Next, 1 mL 50% methanol and internal standards (10 nmol 4-(2-hydroxyethyl)-1-piperazineethanesulfonic acid (HEPES) and piperazine-N,N’-bis(2-ethanesulfonic acid) (PIPES)) were added to the samples. HEPES and PIPES were used as internal standards to correct for the variation of sample preparation and different detection efficiency. After brief vortexing, samples were centrifuged at 500 g for 10 min at 4°C. Supernatant was recovered for further processing as described in the metabolome sample preparation section (without the repeated addition of internal standards and vortexing).
Metabolome sample preparation was previously described.
Peaks were assigned to metabolites based upon their retention times and m/z values. Compounds were confirmed with standards (STD) or with analysis of MS/MS spectra (MS/MS), if no standard was available. In cases where no standard compound or MS/MS spectrum was available, compounds were identified by generating chemical formulae using m/z values in MZmine 2.10 module and given MS status. Data were analyzed using the scatter plot function built into MZmine 2.10 software, as well as by exporting the data to a spreadsheet.

[5] = tested on: TPA-induced ear edema; assay: TPA-induced ear edema; format: in vivo, mouse; conditions: for Ear thickness: 24 h after 1 µg TPA, before TPA 0.22 mm, TPA control 0.30 mm, female C57BL/6 mice
Protocol: The ear edema model was employed as previously described. Briefly, 1 µg 12-O-Tetradecanoylphorbol-13-acetate (TPA) was applied to the right ear of female C57BL/6 mice. Edema was evaluated by measuring ear thickness and ear weight. […] Ear thickness was measured with a micrometer before and 24 h after TPA treatment. After sacrificing mice with CO2, ear punch biopsies (6 mm diameter) were weighed.

[6] = RESV-treated mouse samples, LC-MS negative ionization mode

## O=C(O)[C@H]1O[C@@H](Oc2cc(O)cc(/C=C\c3ccc(O)cc3)c2)[C@H](O)[C@@H](O)[C@@H]1O (relative stereo) [cis-RESV-3-O-GLUC, cis-Resveratrol-3-O-glucuronide]
[1]
  Detection of metabolite (normalized peak area) in cells treated with RESV: detected
[2]
  Detection of metabolite (normalized peak area) in cells treated with RESV: detected
[3]
  Detection of metabolite (normalized peak area) in cells treated with RESV: detected

## O=C(O)[C@H]1O[C@@H](Oc2ccc(/C=C\c3cc(O)cc(O)c3)cc2)[C@H](O)[C@@H](O)[C@@H]1O (relative stereo) [cis-RESV-4-O-glucuronide, cis-resveratrol-4-O-glucuronide]
[4]; mouse, in vivo
  Detection of metabolite in mouse and cell culture samples: barely detected

## O=C(O)[C@H]1O[C@@H](Oc2cc(O)cc(/C=C/c3ccc(O)cc3)c2)[C@H](O)[C@@H](O)[C@@H]1O (relative stereo) [trans-RESV-3-O-GLUC, trans-resveratrol-3-O-glucuronide]
[1]
  Detection of metabolite (normalized peak area) in cells treated with RESV: detected
[2]
  Detection of metabolite (normalized peak area) in cells treated with RESV: detected
[3]
  Detection of metabolite (normalized peak area) in cells treated with RESV: detected

## O=C(O)[C@H]1O[C@@H](Oc2ccc(/C=C/c3cc(O)cc(O)c3)cc2)[C@H](O)[C@@H](O)[C@@H]1O (relative stereo) [trans-RESV-4-O-glucuronide, trans-resveratrol-4-O-glucuronide]
[4]; mouse, in vivo
  Detection of metabolite in mouse and cell culture samples: barely detected

## Oc1ccc(/C=C/c2cc(O)cc(O)c2)cc1 [RESV, trans-resveratrol]
[5]; 6 mm ear punch 24 h after TPA, 1 mg RESV oral, TPA-treated mice 9.4 mg
  Ear weight: 8.1 mg
[5]; 1 mg RESV applied topically to ear 30 min after TPA
  Ear thickness: 0.21 mm
[5]; 1 mg RESV orally 30 min after TPA
  Ear thickness: 0.26 mm

## Dihydroresveratrol- glucuronide [DH-RESV-GLUC]
[4]
  Tissue distribution of metabolite: detected in blood and liver as well as at lower levels in skin and muscle

## Dihydroresveratrol- sulfoglucuronide [DH-RESV-SULF-GLUC]
[4]; [6]
  Reports and comments: samples in which the metabolite was detected: Detected in mouse liver samples

## Dihydroresveratrol-sulfate [DH-RESV-SULF]
[4]
  Tissue distribution of metabolite: detected mainly in liver and blood; also recorded: barely detectable in dorsal and leg skin, and muscle

## Resveratrol-diglucuronide [RESV-DIGLUC]
[4]; mouse, in vivo
  Reports and comments: samples in which the metabolite was detected: Detected in mouse skin samples

## Resveratrol-disulfate [RESV-DISULF]
[4]; [6]
  Reports and comments: samples in which the metabolite was detected: Detected in mouse blood and liver samples

## Resveratrol-sulfoglucuronide [RESV-SULF-GLUC]
[4]; mouse, in vivo
  Reports and comments: samples in which the metabolite was detected: Azorin-Ortuno et al 2011 [4] (MS/MS data) Detected in blood mouse blood samples
